Experimental data: publication PMC4388264, “ANS complex of St John’s wort PR-10 protein with 28 copies in the asymmetric unit: a fiendish combination of pseudosymmetry with tetartohedral twinning” (Acta Crystallographica Section D: Biological Crystallography, 2015)

Biological target: T1, Hyp-1 (Hypericum perforatum, UniProt Q8H1L1)
T1 construct: gene HYP1.1; recombinant Hyp-1 with an N-terminal hexapeptide extension (GIDPFW–) as a cloning artifact
T1 sequence (Q8H1L1 1-159): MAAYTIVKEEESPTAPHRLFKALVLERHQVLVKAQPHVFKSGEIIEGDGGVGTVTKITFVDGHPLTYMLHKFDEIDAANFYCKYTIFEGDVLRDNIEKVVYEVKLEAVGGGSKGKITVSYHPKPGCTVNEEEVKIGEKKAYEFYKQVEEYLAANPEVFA
Assay: crystal structure at […] Å and ITC (N = […]); fluorometric titration gave Kd […]
Assay type: binding

In the case of `O=S(=O)(O)c1cccc2cccc(Nc3ccccc3)c12` [ANS, 8-anilino-1-naphthalene sulfonate], the Kd is reported as 108 ± 3 µM.
